Eleven molecules from ChEMBL document CHEMBL1201862, “PubChem BioAssay data set” (2004) can be followed below.

Each structure is given as a SMILES string.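 Method: 48-hour compound exposure of cells in 96-well plates, five concentrations, linear interpolation of endpoints. The concentration for 50% growth inhibition is given as GI50.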 Activity calls are given as the source filed them. Cut-off read from the data, not from the text of the source: active = GI50 up to about 1.1 µM and inactive = higher.

Test systems include MDA-MB-231; SF-268; CCRF-CEM; SN12C; HL-60; HT-29; SW-620; HCT-15; PC-3; NCI-H226; NCI-H522; M14; SK-MEL-28; SF-295; A549; K562; SF-539; IGROV-1; HOP-92; UACC-62.
Common to all, as to test: NCI tumour cell line growth inhibition, 48 h

With `CCOC(=O)C(Cc1c2ccccc2cc2ccccc12)(NC(C)=O)C(=O)OCC`, the GI50 in the experiment with MDA-MB-231 is > 23.1 µM (inactive); with SF-268 it was 36.9 µM (inactive); in the experiment with CCRF-CEM it was 56.4 µM (inactive); in the experiment with SN12C, > 100 µM (inactive); with HL-60, 34.4 µM (inactive); in the experiment with HT-29, > 86.9 µM (inactive). Also, the GI50 in the experiment on SW-620 is > 79.8 µM (inactive); in the experiment on HCT-15 it was over 49.3 µM; in the experiment with PC-3 it was 50 µM (inactive); with NCI-H226, 62.1 µM (inactive); in the experiment on NCI-H522 it was 64 µM (inactive); in the experiment on M14, > 75.9 µM (inactive). Further, the GI50 with SK-MEL-28 was > 100 µM (inactive); in the experiment on SF-295 it was > 65.9 µM (inactive); in the experiment on A549, > 72.8 µM (inactive); with K562, > 69.8 µM (inactive); in the experiment with SF-539, > 64.6 µM (inactive); in the experiment with IGROV-1 it was > 45 µM (inactive). Moreover, the GI50 with HOP-92 was 14.2 µM (inactive).

Regarding `Cc1ccc(-n2nnc3c(NNc4ccccc4)n[nH]c(=O)c32)cc1`, the GI50 in the experiment with MDA-MB-231 is 96.8 µM (inactive); in the experiment on SF-268, > 10 µM (inactive); in the experiment with CCRF-CEM it was 92 µM (inactive); with SN12C, > 100 µM (inactive); in the experiment on HL-60, 84.7 µM (inactive); with HT-29, 57.9 µM (inactive). The GI50 was over 100 µM with HCT-15; 78.2 µM (inactive) with PC-3; 70 µM (inactive) with NCI-H226; 30.2 µM (inactive) with NCI-H522; > 100 µM (inactive) in the experiment with M14; > 100 µM (inactive) in the experiment with SK-MEL-28. For the same molecule, the GI50 in the experiment with SF-295 was 55.2 µM (inactive); in the experiment on A549 it was 55.6 µM (inactive); in the experiment on K562, 48.3 µM (inactive); with SF-539, > 100 µM (inactive); in the experiment with HOP-92 it was 23.1 µM (inactive).

With `CCCCCCCCCCCCNC(=O)NCC(OCC)OCC`, the GI50 in the experiment with MDA-MB-231, in the experiment with SF-268, in the experiment on CCRF-CEM, with SN12C, in the experiment with HT-29 and in the experiment on SW-620 was > 10 µM (inactive) throughout. Moreover, the GI50 in the experiment with HCT-15 was over 10 µM; with PC-3, > 10 µM (inactive); in the experiment on NCI-H226 it was > 10 µM (inactive); in the experiment on UACC-62 it was > 10 µM (inactive); with NCI-H522 it was > 10 µM (inactive); in the experiment with M14, > 10 µM (inactive). Besides, the GI50 in the experiment with SK-MEL-28, in the experiment on SF-295, in the experiment on A549, in the experiment on K562, in the experiment on SF-539 and with IGROV-1 was > 10 µM (inactive) each time. In addition, in the experiment on HOP-92, the GI50 was > 10 µM (inactive).

For `COC(=O)/C(C#N)=C(/NCCN)Nc1ccccc1`, the GI50 in the experiment with MDA-MB-231, in the experiment on SF-268, in the experiment with SN12C, in the experiment on HL-60, with HT-29 and with SW-620 was > 100 µM (inactive) in each case. In addition, the GI50 with HCT-15 is over 100 µM; with PC-3, > 100 µM (inactive); in the experiment on NCI-H226 it was > 100 µM (inactive); in the experiment on NCI-H522, > 100 µM (inactive); in the experiment on M14, > 100 µM (inactive); in the experiment with SK-MEL-28 it was > 100 µM (inactive). The GI50 in the experiment on SF-295, in the experiment on A549, in the experiment on K562, with SF-539, in the experiment on IGROV-1 and in the experiment with HOP-92 was > 100 µM (inactive) throughout.

Turning to `N#Cc1c(-c2ccc([N+](=O)[O-])cc2)cc(-c2ccc(Nc3ccnc4cc(Cl)ccc34)cc2)[nH]c1=O`, the GI50 with MDA-MB-231 was > 100 µM (inactive); with SF-268, > 100 µM (inactive); in the experiment with HL-60, > 100 µM (inactive); with SW-620, > 100 µM (inactive); with HCT-15 it was over 100 µM; in the experiment on PC-3, > 100 µM (inactive). Further, the GI50 in the experiment on NCI-H226, in the experiment with UACC-62, in the experiment with NCI-H522, with M14, with SK-MEL-28 and in the experiment on SF-295 was > 100 µM (inactive) each time. Also, the GI50 in the experiment with A549, in the experiment with K562, in the experiment on SF-539, in the experiment with IGROV-1 and with HOP-92 was > 100 µM (inactive) in each case.

Regarding `Cc1cc2nc(C#N)c(N3CCN(c4ccc([N+](=O)[O-])cc4)CC3)nc2cc1C`, the GI50 in the experiment on MDA-MB-231 was > 100 µM (inactive); in the experiment with SF-268, > 57.7 µM (inactive); with CCRF-CEM it was > 100 µM (inactive); in the experiment on SN12C, > 92.7 µM (inactive); with HT-29, > 88.5 µM (inactive); in the experiment with SW-620, > 100 µM (inactive). For the same molecule, the GI50 in the experiment on HCT-15 is over 100 µM; in the experiment with PC-3 it was > 100 µM (inactive); in the experiment on NCI-H226 it was > 100 µM (inactive); in the experiment on UACC-62, > 79.1 µM (inactive); with NCI-H522, > 54.1 µM (inactive); in the experiment on M14, > 95.9 µM (inactive). Moreover, the GI50 was > 100 µM (inactive) in the experiment with SK-MEL-28; > 50.5 µM (inactive) in the experiment with SF-295; > 100 µM (inactive) in the experiment on A549; > 100 µM (inactive) in the experiment with K562; 26.1 µM (inactive) in the experiment on SF-539; > 100 µM (inactive) in the experiment with IGROV-1. Further, the GI50 in the experiment with HOP-92 is 50.4 µM (inactive).

For `COC(=O)C(=O)C(C(=O)C(=O)Nc1ccccc1C(C)=O)c1nc2ccc(C(=O)c3ccccc3)cc2nc1O` (stereo unspecified), the GI50 in the experiment on MDA-MB-231 was 78 µM (inactive); with SF-268, 68.2 µM (inactive); in the experiment on SN12C, > 100 µM (inactive); with HL-60 it was > 100 µM (inactive); in the experiment on HT-29, 77.8 µM (inactive); with HCT-15, 74 µM. In addition, the GI50 was 44 µM (inactive) in the experiment with PC-3; 98.2 µM (inactive) in the experiment with NCI-H226; > 100 µM (inactive) with UACC-62; 28.4 µM (inactive) in the experiment with NCI-H522; > 100 µM (inactive) with M14; 45.1 µM (inactive) in the experiment on SF-295. For the same molecule, the GI50 was > 100 µM (inactive) in the experiment with A549; 39.4 µM (inactive) with K562; 76.7 µM (inactive) in the experiment on SF-539; 20.2 µM (inactive) with IGROV-1; 75 µM (inactive) in the experiment with HOP-92.

Consider `O=C1N=C(c2ccccc2)O/C1=C\c1ccccc1`, for which the GI50 in the experiment on MDA-MB-231, with SF-268, with SN12C, in the experiment on HL-60, in the experiment on HT-29 and in the experiment on SW-620 was > 100 µM (inactive) each time. The GI50 was over 100 µM with HCT-15; > 100 µM (inactive) in the experiment on PC-3; > 100 µM (inactive) in the experiment with NCI-H226; > 100 µM (inactive) in the experiment on UACC-62; > 100 µM (inactive) in the experiment with NCI-H522; > 100 µM (inactive) in the experiment on M14. Moreover, the GI50 in the experiment on SK-MEL-28, in the experiment with SF-295, in the experiment on A549, in the experiment with SF-539, in the experiment with IGROV-1 and in the experiment on HOP-92 was > 100 µM (inactive) throughout.

As to `Cc1ccc2c(n1)NC(=O)C(Cc1ccccc1)(N=[N+]=[N-])C2=O` (stereo unspecified), the GI50 with MDA-MB-231, in the experiment on SF-268, in the experiment on CCRF-CEM, in the experiment with SN12C, in the experiment on HT-29 and with SW-620 was > 100 µM (inactive) in each case. Also, the GI50 is over 100 µM in the experiment on HCT-15; > 100 µM (inactive) in the experiment with PC-3; > 100 µM (inactive) in the experiment with NCI-H226; > 100 µM (inactive) in the experiment with UACC-62; > 100 µM (inactive) in the experiment on NCI-H522; > 100 µM (inactive) in the experiment on M14. Also, the GI50 in the experiment with SK-MEL-28, in the experiment with SF-295, in the experiment with A549, with K562, in the experiment with SF-539 and in the experiment on IGROV-1 was > 100 µM (inactive) in each case. Further, in the experiment on HOP-92, the GI50 was > 100 µM (inactive).

Take `CCCc1nnc2sc(COc3ccc(OCc4nn5c(CCC)nnc5s4)c(Cl)c3)nn12`: the GI50 in the experiment with MDA-MB-231 was 36.1 µM (inactive); in the experiment on SF-268, 23 µM (inactive); in the experiment on SN12C, 29.4 µM (inactive); in the experiment with HL-60, 14.8 µM (inactive); with HT-29, 29.4 µM (inactive); in the experiment with SW-620 it was 40.3 µM (inactive). Moreover, the GI50 was 24.9 µM in the experiment on HCT-15; 44.2 µM (inactive) in the experiment with PC-3; > 100 µM (inactive) in the experiment with NCI-H226; 13.7 µM (inactive) in the experiment on UACC-62; 21.1 µM (inactive) in the experiment on NCI-H522; 21.9 µM (inactive) in the experiment on M14. Further, the GI50 was 26.1 µM (inactive) in the experiment on SK-MEL-28; 20.8 µM (inactive) in the experiment on SF-295; 27.5 µM (inactive) in the experiment with A549; 32.1 µM (inactive) with K562; 12.1 µM (inactive) with SF-539; 24.9 µM (inactive) in the experiment with IGROV-1. Also, in the experiment on HOP-92, the GI50 is 20.4 µM (inactive).

For `CC(C)(C)c1cc(Br)c(O)c(CN(Cc2cc(C(C)(C)C)cc(Br)c2O)C2CCCCC2)c1`, the GI50 was 15 µM (inactive) in the experiment with MDA-MB-231; 13.5 µM (inactive) with SF-268; 13.3 µM (inactive) in the experiment on CCRF-CEM; 14.8 µM (inactive) in the experiment on SN12C; 17.6 µM (inactive) with HL-60; 6.89 µM (inactive) with HT-29. The GI50 is 13.1 µM (inactive) in the experiment with SW-620; 12.8 µM in the experiment with HCT-15; 14.9 µM (inactive) with PC-3; 15.6 µM (inactive) in the experiment with NCI-H226; 12.7 µM (inactive) with UACC-62; 12.6 µM (inactive) in the experiment with NCI-H522. Further, the GI50 in the experiment with M14 was 12.9 µM (inactive); in the experiment with SK-MEL-28, 15.5 µM (inactive); in the experiment on SF-295, 12.7 µM (inactive); in the experiment on A549, 14.1 µM (inactive); in the experiment with K562, 13.3 µM (inactive); with IGROV-1 it was 15.3 µM (inactive). For the same molecule, the GI50 with HOP-92 was 15.5 µM (inactive).
